Results taken from US20170150715A1, “METHODS OF ELIMINATING SPORES” (Lifeclean International AB, priority 2013, published 2017).
Marks after values point to notes of the source that are not given here.

Tests used:
[1] = test system: spores of C Difficile, Ribotype 25; assay: Elimination of spores of C Difficile on glass surfaces, types and combinations of surface active agents (Example 6); format: cell-based, Clostridium difficile
Experimental: Example 6 was designed in order to evaluate different types and combinations of surface active agents in combination with chlorine oxide for elimination of spores of C Difficile on surfaces. The following test solutions were used:
The solutions were prepared in accordance with Examples 2, 2A and 3. RD1 and RD2 signify the anionic surfactants of Example 3 branded DOWFAX 3B2 and DOWFAX 8390, respectively. RD3 and RD4 signify the cationic surfactants of Example 2A branded AO-8 Macat and AO-12 Macat.
A spore suspension was generated and counted in accordance with Example 4:
Ribotype 25; 8.0×10^9 spores/mL (8.0×10^8 spores on the glass surface) approximately 80% spores in the suspension.
(§1) The glass surfaces were prepared by transferring 0.1 ml of the spore solution to microscopy slides. After the suspension has dried, 0.2 ml of the test solutions were added to the slides for application times between 1 and 10 minutes. Subsequently, the glass surfaces were each placed in a 500 ml glass flask with 250 ml 0.85% NaCl solution and rotated at 200 rpm for 20 minutes.

[2] = test system: C difficile spores PCR Ribotype 023; assay: Elimination of spores of Clostridium difficile on surfaces (Example 4; glass, brass, copper); format: cell-based; settings: 10 minutes exposure; for Culture 6 PY-broth undiluted / Culture 7 PY-broth 10^−2 / Culture 8 PY-broth 10^−4 / Culture 9 PY-broth 10^−6: cotton tip smear of surface; for total amount of CFUs in the flasks (within brackets): surviving spores displaced from the surface; for amount of CFU in the undiluted PY-broth (within brackets): surviving spores remaining attached to the surface
Description: C difficile spores PCR Ribotype 023 (ECDC/Cardiff nomenclature) were transferred from a frozen sample to plates with Fastidious Anaerobe Agar (FAAAP), cultured under anaerobe conditions for 2 days. The cultures were transferred to ambient conditions and colonies of C difficile were admitted to sporulate. The spores were harvested and dissolved in sterile water (reverse osmosis (RO)), subjected to alcohol shock (70%), washed, centrifugated and collected as a suspension of spores.
In the preparation 0.1 ml of the spore suspension was transferred to microscopy slides, sterile plates of brass or copper. When the spore suspensions have dried, 0.2 ml of the following solutions were added:
After 10 minutes exposure to the solutions, the Glasses and the plates were each transferred to a 500 ml Glass flask to dilute and interrupt disinfection. The flasks were rotated at 200 rpm for 20 minutes.
From each of the rotated flasks 0.1 ml was transferred to agar plates (Culture 1). The samples were diluted in two steps 1/10 in tubes. From each tube, 0.1 ml was transferred to agar plates (Cultures 2 and 3).
The solutions in the flasks were filtered and rinsed with 3×100 ml buffered peptone water (PENAL). The filtrations were performed in two steps. At first, 1 ml was filtered, then remaining volume of solution in the flasks (approx. 249 ml). The filters were cultured on agar plates (Cultures 4 and 5).
At two times, 40 ml samples were taken from the filtrates. These were centrifugated and the supernatant was discarded, the pellet re-suspended in 0.1 ml 0.85% NaCl solution. The entire volume was transferred to agar plates.
In order to assess if viable spore remain on the surfaces of Glasses and the, they were smeared with moist cotton tip (all smeared in accordance with a “double-S” shape). The tip was cultured in 2 ml pre-reduced PY-broth which was diluted 1/10 in several repeated steps and cultured on agar plates (0.2 ml/plate), (Cultures 6 to 9)
All culture plates were cultured under anaerobe conditions at 36° C. for 2 days.

[3] = test system: spore suspension Ribotype 25; assay: Elimination of spores on glass surfaces, different contact times (Example 7); format: cell-based, Clostridium difficile; settings: glass surface, contact time 10 min
Experimental: Example 7 outlines a test with different contact for chlorine dioxide solution according to the invention. A spore suspension was generated and counted in accordance with Example 4:
Ribotype 25; 9.6×10^8 spores/mL (9.6×10^7 spores on the glass surface) approximately 80% spores in the suspension.
as §1
The test solution comprising chlorine dioxide was prepared in accordance with Example 2B, comprising 1600 ppm chlorine dioxide together with 0.2% (v/v) cationic surfactant comprising equal amounts of octyl dimethylamine oxide and lauryl dimethylamine oxide). After rotation, the contents of the flasks were treated and cultured with procedures and agar plates in accordance with Example 4.

[4] = test system: spore suspension Ribotype 25; assay: Elimination of spores on glass surfaces, different concentrations of surfactants (Example 8); format: cell-based, Clostridium difficile; settings: glass surface, application time 2 minutes
Experimental: Example 9 outlines a test with chlorine dioxide solutions of 800 and 1600 ppm having different concentration of surfactants made in accordance with Example 2A. A spore suspension was generated and counted in accordance with Example 4:
Ribotype 25; 8.0×10^8 spores/mL (8.0×10^7 spores on the glass surface) approximately 80% spores in the suspension.
The glass surfaces were prepared by transferring 0.1 ml of the spore solution to microscopy slides. After the suspension has dried, 0.2 ml of the test solutions were added to the slides for an application time of 2 minutes. Subsequently, the glass surfaces were each placed in a 500 ml glass flask with 250 ml 0.85% NaCl solution and rotated at 200 rpm for 20 minutes.
After rotation, the contents of the flasks were treated and cultured with procedures and agar plates in accordance with Example 4.

[5] = 8.0×10^8 spores on the glass surface
[6] = spores survived not detached from the surface
[7] = surviving spores detached from the surface

CCO [70% Ethanol, Ethanol]
0.1 mL Diluted 10^−1 [1, 5]: overgrown | 0.1 mL Diluted 10^−2 [1, 5]: 240 CFUs | 0.1 mL From bottle [1, 5]: overgrown | Filtration 1 mL [1, 5]: overgrown | PY-broth Diluted 10^−2 [1, 5]: overgrown | PY-broth Diluted 10^−4 [1, 5]: 86 CFUs | PY-broth Undiluted [1, 5]: overgrown | number of CFUs in the undiluted PY-broth (brackets) [1, 6]: (8.6 × 10^6) CFUs | number of CFUs in the flask (brackets) [1, 7]: (6.0 × 10^7) CFUs | Culture 1 0.1 mL From bottle ([2]; Brass): overgrown | Culture 2 Dilution 10^−1 ([2]; Brass): 55 CFU | Culture 3 Dilution 10^−2 ([2]; Brass): 5 CFU | Culture 4 Filtration 1 mL ([2]; Brass): overgrown | Culture 5 Filtration 249 mL ([2]; Brass): overgrown | Culture 6 PY-broth undiluted ([2]; Brass): overgrown | Culture 7 PY-broth 10^−2 ([2]; Brass): overgrown | Culture 8 PY-broth 10^−4 ([2]; Brass): 74 CFU | Culture 9 PY-broth 10^−6 ([2]; Brass): 0 CFU | total amount of CFUs in the flasks (within brackets) ([2]; Brass): (1.4 × 10^6) CFU | amount of CFU in the undiluted PY-broth (within brackets) ([2]; Brass): (7.4 × 10^6) CFU | Culture 1 0.1 mL From bottle ([2]; Copper): 429 CFU | Culture 2 Dilution 10^−1 ([2]; Copper): 40 CFU | Culture 3 Dilution 10^−2 ([2]; Copper): 1 CFU | Culture 4 Filtration 1 mL ([2]; Copper): overgrown | Culture 5 Filtration 249 mL ([2]; Copper): overgrown | Culture 6 PY-broth undiluted ([2]; Copper): overgrown | Culture 7 PY-broth 10^−2 ([2]; Copper): overgrown | Culture 8 PY-broth 10^−4 ([2]; Copper): 79 CFU | Culture 9 PY-broth 10^−6 ([2]; Copper): 0 CFU | total amount of CFUs in the flasks (within brackets) ([2]; Copper): (1.0 × 10^6) CFU | amount of CFU in the undiluted PY-broth (within brackets) ([2]; Copper): (7.9 × 10^6) CFU | Culture 1 0.1 mL From bottle ([2]; Glass): overgrown | Culture 2 Dilution 10^−1 ([2]; Glass): 517 CFU | Culture 3 Dilution 10^−2 ([2]; Glass): 46 CFU | Culture 4 Filtration 1 mL ([2]; Glass): overgrown | Culture 5 Filtration 249 mL ([2]; Glass): overgrown | Culture 6 PY-broth undiluted ([2]; Glass): overgrown | Culture 7 PY-broth 10^−2 ([2]; Glass): overgrown | Culture 8 PY-broth 10^−4 ([2]; Glass): 39 CFU | Culture 9 PY-broth 10^−6 ([2]; Glass): 1 CFU | total amount of CFUs in the flasks (within brackets) ([2]; Glass): (1.2 × 10^7) CFU | amount of CFU in the undiluted PY-broth (within brackets) ([2]; Glass): (3.9 × 10^6) CFU | Number cfu Filtration 249 mL [3]: overgrown | Number cfu × 10 PY-broth Undiluted [3]: overgrown | Number cfu × 10^3 PY-broth Diluted 10^−2 [3]: overgrown | Number cfu × 10^5 PY-broth Diluted 10^−4 [3]: 67 cfu | Number cfu × 10 × 250 0.1 mL From bottle [3]: overgrown | Number cfu × 100 × 250 0.1 mL Diluted 10^−1 [3]: overgrown | Number cfu × 250 Filtration 1 mL [3]: overgrown | Number cfu × 1000 × 250 0.1 mL Diluted 10^−2 [3]: 103 cfu | number of CFUs in the undiluted PY-broth (brackets) [3, 6]: (6.7 × 10^6) CFUs | number of CFUs in the flask (brackets) [3, 7]: (2.6 × 10^7) CFUs | Number cfu × 100 × 250 0.1 mL Diluted 10^−2 ([4]; head lines shifted, by Table 4 layout: 0.1 mL Diluted 10^−1): overgrown | Number cfu × 1000 × 250 PY-broth Undiluted ([4]; head lines shifted, by Table 4 layout: 0.1 mL Diluted 10^−2): 81 cfu | Number cfu × 10 × 250 0.1 mL Diluted 10^−1 ([4]; head lines shifted, by Table 4 layout: 0.1 mL From bottle): overgrown | Number cfu × 250 0.1 mL From bottle ([4]; head lines shifted, by Table 4 layout: Filtration 1 mL): overgrown | Number cfu Filtration 1 mL ([4]; head lines shifted, by Table 4 layout: Filtration 249 mL): overgrown | Number cfu × 10^3 PY-broth Diluted 10^−4 ([4]; head lines shifted, by Table 4 layout: PY-broth Diluted 10^−2): overgrown | Number cfu × 10^5 Filtration 249 mL ([4]; head lines shifted, by Table 4 layout: PY-broth Diluted 10^−4): 28 cfu | Number cfu × 10 PY-broth Diluted 10^−2 ([4]; head lines shifted, by Table 4 layout: PY-broth Undiluted): overgrown | number of CFUs in the undiluted PY-broth (brackets) [4, 6]: (2.8 × 10^6) CFUs | number of CFUs in the flask (brackets) [4, 7]: (2.0 × 10^7) CFUs
